Data on 13 compounds can be found in patent US7767659B2, “Synthesis of naturally occurring ecteinascidins and related compounds” (Pharma Mar, S.A., priority 2002, dated 2010).

Like-named read-outs stand apart in the source and are kept apart here.

The subject of series [1] is HT-29. In words: cells. As to the method:
(§1) This form of the assay employs 96 well cell culture microplates of 9 mm diameter (Faircloth, 1988; Mosmann, 1983). Most of the cell lines are obtained from American Type Culture Collection (ATCC) derived from different human cancer types.
(§2) Cells are maintained in RPMI 1640 10% FBS, supplemented with 0.1 g/l penicillin and 0.1 g/l streptomycin sulfate and then incubated at 37° C., 5% CO2 and 98% humidity. For the experiments, cells were harvested from subconfluent cultures using trypsin and resuspended in fresh medium before plating.
(§3) Cells are seeded in 96 well microtiter plates, at 5×10^3 cells per well in aliquots of 195 μl medium, and they are allowed to attach to the plate surface by growing in drug free medium for 18 hours. Afterward, samples are added in aliquots of 5 μl in a ranging from 10 to 10^−8 μg/ml, dissolved in DMSO/EtOH/PBS (0.5:0.5:99). After 48 hours exposure, the antitumor effect are measured by the SRB methodology: cells are fixed by adding 50 μl of cold 50% (wt/vol) trichloroacetic acid (TCA) and incubating for 60 minutes at 4° C. Plates are washed with deionized water and dried. One hundred μl of SRB solution (0.4% wt/vol in 1% acetic acid) is added to each microtiter well and incubated for 10 minutes at room temperature. Unbound SRB is removed by washing with 1% acetic acid. Plates are air dried and bound stain is solubilzed with Tris buffer. Optical densities are read on a automated spectrophotometric plate reader at a single wavelength of 490 nm.
(§4) The values for mean +/− SD of data from triplicate wells are calculated. Some parameters for cellular responses can be calculated: GI=growth inhibition, TGI=total growth inhibition (cytostatic effect) and LC=cell killing (cytotoxic effect).

The test system of series [2] is A-549. In words: cells. Here is the method:
as §1, §2, §3, §4

Series [3] has as its system K-562. The experiment in a line: Inhibition of cells growth by colorimetric assay (SRB). Particulars: Homo sapiens, K562, 48 h, read-out: GI50 K562. Here is the method:
as §1, §2, §3, §4

The subject of series [4] is LNCaP. Described as above. Conditions: Homo sapiens, LNCaP, 48 h, read-out: GI50 LNCAP. Here is the method: as §1, §2, §3, §4
Setting [5] is: Homo sapiens, HT-29, 48 h, read-out: HT29 GI50.
Where [6] appears, read: Homo sapiens, HT-29, 48 h, read-out: HT29 LC50.
The mark [7] stands for this setting: Homo sapiens, HT-29, 48 h, read-out: HT29 TGI.
Where [8] appears, read: Homo sapiens, A549, 48 h, read-out: A549 GI50.
[9] abbreviates: Homo sapiens, A549, 48 h, read-out: A549 LC50.
Setting [10] is: Homo sapiens, A549, 48 h, read-out: A549 TGI.
The mark [11] stands for this setting: Homo sapiens, HT-29, 48 h, read-out: GI50 HT29.
[12] abbreviates: Homo sapiens, HT-29, 48 h, read-out: LC50 HT29.
The mark [13] stands for this setting: Homo sapiens, HT-29, 48 h, read-out: TGI HT29.
Setting [14] is: Homo sapiens, A549, 48 h, read-out: GI50 A549.
Where [15] appears, read: Homo sapiens, A549, 48 h, read-out: LC50 A549.
Setting [16] is: Homo sapiens, A549, 48 h, read-out: TGI A549.

In the case of `COCCOCOc1c(OC)c(C)cc2c1[C@@H]1C3CC4(O)C(=O)C(C)=C5OCOC5=C4[C@H](CNC(=O)[C@H](CSCC4c5ccccc5-c5ccccc54)NC(=O)OC(C)(C)C)N3[C@@H](C#N)[C@H](C2)N1C` (some centres unmarked) [compound 72], the GI50 in series [1] (setting [5]) worked out at 1.04 µM; in series [2] (setting [8]), 0.0519 µM. The CC50 came to 5.19 µM in series [1] (setting [6]) and 4.15 µM in series [2] (setting [9]). Moreover, the results for the IC (TGI) in series [1] (setting [7]) and in series [2] (setting [10]) were 1.04 µM and 0.104 µM, respectively.
Turning to `COCCOCOc1c(OC)c(C)cc2c1[C@H]1N[C@@H](C2)[C@H](C#N)N2C1Cc1c(O)c(C)c3c(c1[C@@H]2CO[Si](c1ccccc1)(c1ccccc1)C(C)(C)C)OCO3` (some centres unmarked) [compound 6], the GI50 is 12.5 µM in series [1] (setting [11]) and 6.65 µM in series [2] (setting [14]). The CC50 in series [1] (setting [12]) and in series [2] (setting [15]) was 12.6 µM throughout. The IC (TGI) in series [1] (setting [13]) and in series [2] (setting [16]) was 12.6 µM throughout.
As for `COc1cc2c(cc1O)CCN[C@]21C[S+]([O-])[C@@H]2c3c(OC(C)=O)c(C)c4c(c3[C@H](COC1=O)N1C2C2c3c(cc(C)c(OC)c3O)C[C@@H]([C@@H]1C#N)N2C)OCO4` (some centres unmarked) [compound 17], the figures for the GI50 in series [1] (setting [11]) and in series [2] (setting [14]) were 0.0391 µM and 0.0229 µM, respectively. Also, the CC50 in series [1] (setting [12]) stood at 12.7 µM; in series [2] (setting [15]) it was 0.117 µM. For the same compound, the IC (TGI) in series [1] (setting [13]) is 0.086 µM; in series [2] (setting [16]) it was 0.0521 µM.
As for `COCCOCOc1c(OC)c(C)cc2c1[C@H]1N[C@@H](C2)[C@H](C#N)N2C1CC1(O)C(=O)C(C)=C3OCOC3=C1[C@@H]2CO[Si](c1ccccc1)(c1ccccc1)C(C)(C)C` (some centres unmarked) [compound 7], the “TGI HT29” value in series [1] (HT29, SRB, 48 hours exposure) was 2.40E−06 Molar. Besides, the GI50 is 0.918 µM in series [1] (read-out: GI50 HT29, HT29, SRB, 48 hours exposure) and 1.87 µM in series [2] (read-out: GI50 A549, A549, SRB, 48 hours exposure). In addition, the CC50 in series [1] (read-out: LC50 HT29, HT29, SRB, 48 hours exposure) stood at 5.46 µM; in series [2] (read-out: LC50 A549, A549, SRB, 48 hours exposure) it was 6.61 µM. In series [2] (A549, SRB, 48 hours exposure), the “TGI A549” value is listed as 3.51E−06 Molar.
Consider `C=CCN1[C@@H]2c3c(cc(C)c(OC)c3OCOCCOC)C[C@H]1[C@H](C#N)N1C2CC2(O)C(=O)C(C)=C3OCOC3=C2[C@@H]1CO[Si](c1ccccc1)(c1ccccc1)C(C)(C)C` (some centres unmarked) [compound 8], for which the GI50 in series [1] (setting [11]) was determined as 7.82 µM; in series [2] (setting [14]), 11.8 µM. The CC50 in series [1] (setting [12]) and in series [2] (setting [15]) was 11.8 µM throughout. The IC (TGI) in series [1] (setting [13]) and in series [2] (setting [16]) was 11.8 µM throughout.
On to `C=CCOc1c(C)c2c(c3c1CC1[C@H]4c5c(cc(C)c(OC)c5OCOCCOC)C[C@@H]([C@H](C#N)N1[C@H]3CO[Si](c1ccccc1)(c1ccccc1)C(C)(C)C)N4C)OCO2` (some centres unmarked) [compound 4], for which the GI50 in series [1] (setting [11]) turned out to be 0.591 µM; in series [2] (setting [14]), 2.36 µM. Moreover, the CC50 in series [1] (setting [12]) and in series [2] (setting [15]) was 11.8 µM throughout. Further, the IC (TGI) in series [1] (setting [13]) came out at 1.18 µM; in series [2] (setting [16]), 8.27 µM.
Take `C=CCN1[C@@H]2c3c(cc(C)c(OC)c3OCOCCOC)C[C@H]1[C@H](C#N)N1C2[C@@H]2SC[C@@H](NC(=O)OC(C)(C)C)C(=O)OC[C@H]1c1c3c(c(C)c(OC(C)=O)c12)OCO3` (some centres unmarked) [compound 11]: the GI50 is 4.76 µM in series [3] and 5.84 µM in series [4].
Regarding `C=CCOc1c(C)c2c(c3c1CC1[C@H]4c5c(cc(C)c(OC)c5O)C[C@@H]([C@H](C#N)N1[C@H]3CNC(=O)[C@H](CSCC1c3ccccc3-c3ccccc31)NC(=O)OC(C)(C)C)N4C)OCO2` (some centres unmarked) [compound 69], the GI50 in series [1] (setting [5]) came to 1.11 µM; in series [2] (setting [8]), 5.57 µM. Besides, the values for the CC50 in series [1] (setting [6]) and in series [2] (setting [9]) were 11.1 µM and 55.7 µM, respectively. Besides, the IC (TGI) in series [1] (setting [7]) stood at 1.11 µM; in series [2] (setting [10]), 22.3 µM.
Regarding `COc1c(C)cc2c(c1O)[C@@H]1C3[C@@H]4SCC(N)C(=O)OC[C@@H](c5c6c(c(C)c(OC(C)=O)c54)OCO6)N3[C@@H](C#N)C(C2)N1C` (some centres unmarked) [compound 18], the GI50 in series [1] (setting [11]) worked out at 0.0804 µM; in series [2] (setting [14]), 0.161 µM. In addition, the CC50 amounted to 80.4 µM in series [1] (setting [12]) and 8.04 µM in series [2] (setting [15]). Further, the IC (TGI) in series [1] (setting [13]) and in series [2] (setting [16]) was 0.643 µM throughout.
Consider `C=CCOc1c(C)c2c(c3c1CC1[C@@H]4N[C@@H](Cc5cc(C)c(OC)c(OCOCCOC)c54)[C@H](C#N)N1[C@H]3CO[Si](c1ccccc1)(c1ccccc1)C(C)(C)C)OCO2` (some centres unmarked) [compound 5], for which the GI50 in series [1] (setting [11]) stood at 0.481 µM; in series [2] (setting [14]), 0.721 µM. Moreover, the CC50 was 6.01 µM in series [1] (setting [12]) and 8.41 µM in series [2] (setting [15]). Further, the results for the IC (TGI) in series [1] (setting [13]) and in series [2] (setting [16]) were 1.2 µM and 2.4 µM, respectively.
On to `C=CCOc1c(C)c2c(c3c1CC1[C@H]4c5c(cc(C)c(OC)c5O)C[C@@H]([C@H](C#N)N1[C@H]3CO[Si](c1ccccc1)(c1ccccc1)C(C)(C)C)N4C)OCO2` (some centres unmarked) [compound 3], for which the GI50 was 4.01 µM in series [1] (setting [11]) and 4.18 µM in series [2] (setting [14]). The CC50 in series [1] (setting [12]) and in series [2] (setting [15]) was 13.2 µM in each case. Further, the IC (TGI) in series [1] (setting [13]) was determined as 12.3 µM; in series [2] (setting [16]), 13 µM.
On to `C=CCN1[C@@H]2c3c(cc(C)c(OC)c3OCOCCOC)C[C@H]1[C@H](C#N)N1C2CC2(O)C(=O)C(C)=C3OCOC3=C2[C@@H]1CO` (some centres unmarked) [compound 9], for which the GI50 in series [1] (setting [11]) and in series [2] (setting [14]) was 16.4 µM each time. Also, the CC50 in series [1] (setting [12]) and in series [2] (setting [15]) was 16.4 µM throughout. The IC (TGI) in series [1] (setting [13]) and in series [2] (setting [16]) was 16.4 µM each time.
On to `C=CCOc1c(C)c2c(c3c1CC1[C@H]4c5c(cc(C)c(OC)c5OCOCCOC)C[C@@H]([C@H](C#N)N1[C@H]3CNC(=O)[C@H](CSCC1c3ccccc3-c3ccccc31)NC(=O)OC(C)(C)C)N4C)OCO2` (some centres unmarked) [compound 70], for which the GI50 in series [1] (setting [5]) was 10.1 µM; in series [2] (setting [8]) it was 5.06 µM. Besides, the CC50 in series [1] (setting [6]) and in series [2] (setting [9]) was 50.6 µM throughout. The IC (TGI) was 10.1 µM in series [1] (setting [7]) and 50.6 µM in series [2] (setting [10]).
